Measured values as given in patent EP0175304A2 (LABORATORI BALDACCI Spa, priority 1984, dated 1986).
Read-outs that look alike come from different tables or passages of the source.

Key:
growing Swiss mouse = assay: acute toxicity (LD50 and toxic symptomatology), intraperitoneal administration; assay type: in vivo; conditions: ip
Method: (§1) The compounds of the invention were tested to evaluate their antiinflammatory, analgesic, antipyretic, platelet aggregation inhibition and cytostatic pharmacological effects. At the same time acute toxicity tests were made in the mouse with evaluation of LD 50 and of the symptomatology resulting from the treatment.
(§2) LD 50 and toxic symptomatology resulting from the treatment were evaluated in the growing Swiss mouse by intraperitoneal administration of the different compounds. The period of observation was extended for 10 days after administration and the value of the lethal dose was calculated by graphic interpolation of the number of deaths.
(§3) In Table II are given acute toxicity data (LD50 calculated with the graphic method) obtained in the mouse after intraperitoneal administration of the various compounds and the symptomatological observations attributable to the treatment.

[1] = as above; assay type: in vivo; conditions: in vivo, mouse, ip, 10 days observation, graphic interpolation; for LD50 at 10 days: Swiss
Method: as §1, §2, §3

Fibrosarcoma 3T3-B77 = assay: cytostatic action on fibrosarcoma cell line; assay type: cell-based; conditions: compounds added in vitro in different concentrations
Method: (§4) Cytostatic action was tested on cellular lines of Fibrosarcoma 3T3-B77 obtained by conversion of 3T3 Bald/C fibroblasts by Bratislava 77 strain RSV virus and on MELANOMA B16-Fl cells.
(§5) The influence of cellular proliferation induced by the addition in vitro of the compounds in different concentrations was evaluated.

MELANOMA B16-Fl cells = assay: cytostatic action on melanoma cells; assay type: cell-based; conditions: compounds added in vitro in different concentrations
Method: as §4, §5

[2] = haematic and urine rates after oral treatment (HPLC); assay type: in vivo; conditions: rat, 50 mg/kg os
Method: To preliminarily complete the pharmacological profile of the new series of compounds which are the object of the present invention and making reference to compound 8 a pharmacological test was performed in the rat and a subacute toxicity test was performed in the same animal species. Determination was performed with HPLC of the content in biological liquids.

TXB2 = assay: generation of TXB2 on whole blood after stimulation with collagen; assay type: cell-based; conditions: collagen 1 μg/ml
Method: (§6) Inhibition of platelet aggregation was evaluated in vitro according to the Born method with various inducers (arachidonic acid, adrenalin, collagen) using as the substrate human plasma from healthy donors. For some new compounds the generation of thromboxane B2 and 6-keto-PGF according to the De Fryen method was evaluated. Platelet aggregation was studied in two successive periods: immediately after addition of the derivative and after 15 minutes of incubation at 37°C.
The results obtained on the generation of TXB2 and 6-Keto-PGF evaluated to determine preliminarily the level of interaction on the biochemical. mechanisms underlying increased platelet reactivity are given in Table X.

platelet aggregation = platelet aggregation in vitro according to Born, inducer arachidonic acid; assay type: cell-based, human; conditions: inducer 1 mM arachidonic acid
Method: as §6
On some of the compounds which are the object of the present invention differentiated independently of the magnitude of the antiinflamatory, analgesic and antipyretic effect, preliminary tests in vitro were performed under the experimental conditions set forth above for the purpose of evaluating their effect on platelet reactivity.

growing male Wistar rat [3] = assay: antipyretic action, beer yeast-induced hyperthermia; assay type: in vivo; conditions: one dosage per product, 5-100 mg/kg, see column 'Dosage mg/kg ip'
growing male Wistar rat [4] = assay: antiinflammatory action, carrageenin-induced paw edema; assay type: in vivo; conditions: one dosage per product, 5-100 mg/kg, see column 'Dosage mg/kg ip'
male Wistar rat = assay: analgesic action, Randall and Selitto method (carrageenin-inflamed paw); assay type: in vivo; conditions: one dosage per product, 5-100 mg/kg, see column 'Dosage mg/kg ip'

With `O=C(O)CCON=Cc1ccc(Cl)cc1` [compound 14] the Symptomatology (growing Swiss mouse) was “passivity” and the LD50 at 240 h [1] was 350 mg/kg.

With `O=C(O)CCO/N=C/c1ccccc1` [compound 8] the “influence on cellular proliferation” value (Fibrosarcoma 3T3-B77) was “significant influence on cellular proliferation”, the Symptomatology (growing Swiss mouse) was “passivity” and the LD50 at 10 days [1] was 600 mg/kg. The “influence on cellular proliferation” value (MELANOMA B16-Fl cells) was “significant influence on cellular proliferation”, the concentration at 1 h ([2]; plasma, 1 hour) was 180 µg/mL and the concentration at 2 h ([2]; plasma, 2 hours) was 145 µg/mL. For the same compound, the concentration at 3 h ([2]; plasma, 3 hours) was 142 µg/mL, the concentration at 4 h ([2]; plasma, 4 hours) was 141 µg/mL and the concentration at 6 h ([2]; plasma, 6 hours) was 140 µg/mL. For the same compound, the concentration at 24 h ([2]; plasma, read-out: Plasma) was 90 µg/mL, the concentration at 48 h ([2]; plasma, read-out: Plasma) was 53 µg/mL and the concentration at 8 h ([2]; urine, 8 hours) was 30 µg/mL. For the same compound, the concentration at 24 h ([2]; urine, read-out: Urine) was 80 µg/mL, the concentration at 48 h ([2]; urine, read-out: Urine) was 17 µg/mL and the “Generation of TXB2” value (TXB2; 5.10^-4 M, 5 min, control 41.2) was 11.7 (41.2) μg/ml. The “Generation of TXB2” value (TXB2; 5.10^-4 M, 15 min, control 26.5) was 8.6 (26.5) μg/ml, the “Generation of TXB2” value (TXB2; 5.10^-4 M, 30 min, control 36.5) was 8.5 (36.5) μg/ml and the “Generation of TXB2” value (TXB2; 5.10^-4 M, 60 min, control 65.8) was 15.1 (65.8) μg/ml. The “Generation of TXB2” value (TXB2; 5.10^-5 M, 5 min, control 41.2) was 54.3 (41.2) μg/ml, the “Generation of TXB2” value (TXB2; 5.10^-5 M, 15 min, control 26.5) was 37.5 (26.5) μg/ml and the “Generation of TXB2” value (TXB2; 5.10^-5 M, 30 min, control 36.5) was 41.4 (36.5) μg/ml. The “Generation of TXB2” value (TXB2; 5.10^-5 M, 60 min, control 65.8) was 68 (65.8) μg/ml, the “Percentage response variation AM” value (platelet aggregation; 5.10^-4 M) was -32.3% and the “Percentage response variation Lagt” value (platelet aggregation; 5.10^-4 M) was “+114.3%”. The “Percentage response variation AM” value (platelet aggregation; 5.10^-5 M) was -1.5% and the “Percentage response variation Lagt” value (platelet aggregation; 5.10^-5 M) was “+10.7%”.

In the case of `CCC(CO/N=C/c1ccccc1)C(=O)O` (stereo not drawn) [compound 25], the “influence on cellular proliferation” value (Fibrosarcoma 3T3-B77) is reported as “significant influence on cellular proliferation”, the “Antipyretic action (maximum % response in first 4 hours)” value (growing male Wistar rat [3]) is reported as 35% and the “Antiinflammatory action (maximum % response in first 4 hours)” value (growing male Wistar rat [4]) is reported as 35%. For the same compound, the Symptomatology (growing Swiss mouse) was “passivity”, the LD50 at 240 h [1] was 800 mg/kg and the “influence on cellular proliferation” value (MELANOMA B16-Fl cells) was “significant influence on cellular proliferation”. The “Analgesic action (maximum % response in first 4 hours)” value (male Wistar rat) was 40%.

In the case of `O=C(O)CCON=C1CCCCC1` [compound 2], the “influence on cellular proliferation” value (Fibrosarcoma 3T3-B77) is reported as “significant influence on cellular proliferation”, the Symptomatology (growing Swiss mouse) is reported as “agitation” and the LD50 at 240 h [1] is reported as 50 mg/kg. For the same compound, the “influence on cellular proliferation” value (MELANOMA B16-Fl cells) was “significant influence on cellular proliferation”.

In the case of `O=C(O)CCON=Cc1ccco1` [compound 15], the Symptomatology (growing Swiss mouse) is reported as “negligible” and the LD50 at 240 h [1] is reported as 1500 mg/kg.

With `COc1ccc(C(C)=NOCCC(=O)O)cc1` [compound 12] the Symptomatology (growing Swiss mouse) was “passivity” and the LD50 at 240 h [1] was 850 mg/kg.

In the case of `O=C(O)CCON=C1c2ccccc2-c2ccccc21` [compound 13], the “influence on cellular proliferation” value (Fibrosarcoma 3T3-B77) is reported as “significant influence on cellular proliferation”, the Symptomatology (growing Swiss mouse) is reported as “passivity” and the LD50 at 240 h [1] is reported as 250 mg/kg. For the same compound, the “influence on cellular proliferation” value (MELANOMA B16-Fl cells) was “significant influence on cellular proliferation”.

In the case of `O=C(O)CCON=C(c1ccccc1)c1ccccc1` [compound 7], the Symptomatology (growing Swiss mouse) is reported as “passivity” and the LD50 at 240 h [1] is reported as 300 mg/kg.

In the case of `O=C(O)CCO/N=C/c1cccs1` [compound 22], the Symptomatology (growing Swiss mouse) is reported as “passivity”, the LD50 at 240 h [1] is reported as 1800 mg/kg and the “Percentage response variation AM” value (platelet aggregation; 5.10^-4 M) is reported as “+80.5%”. The “Percentage response variation Lagt” value (platelet aggregation; 5.10^-4 M) was “+276.0%”, the “Percentage response variation AM” value (platelet aggregation; 5.10^-5 M) was “+38.3%” and the “Percentage response variation Lagt” value (platelet aggregation; 5.10^-5 M) was “+12.0%”.

With `CC(C)C(=NOCCC(=O)O)C(C)C` [compound 5] the Symptomatology (growing Swiss mouse) was “agitation” and the LD50 at 10 days [1] was 400 mg/kg.

In the case of `CC(=NOCCC(=O)O)c1ccc(Cl)cc1` [compound 11], the Symptomatology (growing Swiss mouse) is reported as “agitation” and the LD50 at 240 h [1] is reported as 250 mg/kg.

In the case of `CC(CO/N=C/c1ccccc1)C(=O)O` (stereo not drawn) [compound 24], the “influence on cellular proliferation” value (Fibrosarcoma 3T3-B77) is reported as “significant influence on cellular proliferation”, the “Antipyretic action (maximum % response in first 4 hours)” value (growing male Wistar rat [3]) is reported as 40% and the “Antiinflammatory action (maximum % response in first 4 hours)” value (growing male Wistar rat [4]) is reported as 35%. The Symptomatology (growing Swiss mouse) was “passivity”, the LD50 at 240 h [1] was 750 mg/kg and the “influence on cellular proliferation” value (MELANOMA B16-Fl cells) was “significant influence on cellular proliferation”. The “Analgesic action (maximum % response in first 4 hours)” value (male Wistar rat) was 46%.

For `O=C(O)CCON=Cc1ccccc1Cl` [compound 17], the Symptomatology (growing Swiss mouse) was “passivity”, the LD50 at 240 h [1] was 400 mg/kg and the “Percentage response variation AM” value (platelet aggregation; 5.10^-4 M) was -79.8%. The “Percentage response variation Lagt” value (platelet aggregation; 5.10^-4 M) was “+273.9%”, the “Percentage response variation AM” value (platelet aggregation; 5.10^-5 M) was -33.3% and the “Percentage response variation Lagt” value (platelet aggregation; 5.10^-5 M) was “+60.0%”.

For `COc1ccc(OC)c(C=NOCCC(=O)O)c1` [compound 16], the Symptomatology (growing Swiss mouse) was “passivity”, the LD50 at 240 h [1] was 600 mg/kg and the “Percentage response variation AM” value (platelet aggregation; 5.10^-4 M) was -13.3%. The “Percentage response variation Lagt” value (platelet aggregation; 5.10^-4 M) was “+28.0%”, the “Percentage response variation AM” value (platelet aggregation; 5.10^-5 M) was -16.1% and the “Percentage response variation Lagt” value (platelet aggregation; 5.10^-5 M) was -8.0%.

In the case of `CCCC(CCC)=NOCCC(=O)O` [compound 4], the Symptomatology (growing Swiss mouse) is reported as “passivity” and the LD50 at 240 h [1] is reported as 450 mg/kg.

In the case of `O=C(O)CCO/N=C\c1ccccc1` [compound 23], the “influence on cellular proliferation” value (Fibrosarcoma 3T3-B77) is reported as “significant influence on cellular proliferation”, the Symptomatology (growing Swiss mouse) is reported as “passivity” and the LD50 at 10 days [1] is reported as 510 mg/kg. The “influence on cellular proliferation” value (MELANOMA B16-Fl cells) was “significant influence on cellular proliferation”.

In the case of `O=C(O)CCON=Cc1cccc(Cl)c1` [compound 18], the Symptomatology (growing Swiss mouse) is reported as “passivity” and the LD50 at 240 h [1] is reported as 325 mg/kg.

For `O=C(O)CCO/N=C/c1ccc2c(c1)OCO2` [compound 21], the Symptomatology (growing Swiss mouse) was “passivity” and the LD50 at 240 h [1] was 525 mg/kg.

For `O=C(O)CCON=C1CCCC1` [compound 1], the “influence on cellular proliferation” value (Fibrosarcoma 3T3-B77) was “significant influence on cellular proliferation”, the Symptomatology (growing Swiss mouse) was “agitation” and the LD50 at 240 h [1] was 200 mg/kg. For the same compound, the “influence on cellular proliferation” value (MELANOMA B16-Fl cells) was “significant influence on cellular proliferation”.

With `CC(=NOCCC(=O)O)c1ccccc1` [compound 6] the Symptomatology (growing Swiss mouse) was “passivity” and the LD50 at 240 h [1] was 600 mg/kg.

In the case of `CC(C)=NOCCC(=O)O` [compound 3], the Symptomatology (growing Swiss mouse) is reported as “passivity” and the LD50 at 240 h [1] is reported as 300 mg/kg.
